Measured values as given in patent US20160347852A1, “Combination therapy of an anti-CD20 antibody with a Bcl-2 inhibitor and a MDM2 inhibitor” (Hoffmann-La Roche Inc., priority 2015, published 2016).

Legend:
[1] = system: human Z138 mantle cell lymphoma cell line; assay: Antitumor activity of combined treatment, Z138 mantle cell lymphoma xenograft (Example 2); assay type: in vivo, SCID beige mice; details: for Tumor growth inhibition (TGI) on day 32: SCID beige mice, RO5072759 0.5 mg/kg i.p. q7d, GDC-0199 100 mg/kg p.o. daily, RG7388 100 then 80 mg/kg p.o. daily, day 32 after tumor cell inoculation; for Tumor-free animals on Day 125: number of animals out of 9-10 per group; for Median time to event (Days to reach TV of 1500 mm^3): time-to-event analysis until day 125; for Number of animals with reduced tumor growth or non-responder / Number of animals with tumor regrowth: until day 125
Method: Type II anti-CD20 antibody B-HH6-B-KV1 GE (=humanized B-Ly1, glycoengineered B-HH6-B-KV1, see WO 2005/044859 and WO 2007/031875) was provided as stock solution (c=9.4 mg/ml) from GlycArt, Schlieren, Switzerland, in histidine, trehalose and polysorbate 20 buffer. The antibody was diluted with PBS prior to in-vivo application. The Bcl-2 inhibitor GDC-0199 was obtained from Genentech Inc., CA, USA. MDM2(4) antagonist RG7388 (RO5503781) was provided by the Small Molecule Process Research and Development unit, Hoffmann-La Roche, Basel, Switzerland.
The human Z138 mantle cell lymphoma cell line was cultured in DMEM supplemented with 10% fetal bovine serum (PAA Laboratories, Austria) and 2 mM L-glutamine at 37° C. in a water-saturated atmosphere at 5% CO2. For in-vivo xenograft experiments the cells were co-injected with Matrigel.
Female SCID beige mice, age 4-5 weeks at arrival (purchased from Charles River, Sulzfeld, Germany), were maintained in the quarantine part of the animal facility for one week and afterwards under specific-pathogen-free condition with daily cycles of 12 h light/12 h darkness according to guidelines (GV-Solas; Felasa; TierschG). The experimental study protocol was reviewed and approved by Roche and the local government (Regierung von Oberbayern; registration no. 55.2-1-54-2531.2-26-09). Diet food (KLIBA NAFAG 3807) and water (filtered) were provided ad libitum.
Animals were monitored daily for clinical symptoms and detection of adverse effects. During the experiment the body weight of animals was checked two times a week and tumor volume was measured by caliper.
Animal treatment started at the day of randomization 18 days after tumor cell inoculation. Humanized type II anti-CD20 antibody RO5072759 B-HH6-B-KV1 GE (obinutuzumab) was administered as single agent i.p. q7d once weekly (day 18, 25, 32) for 3 weeks at a dosage of 0.5 mg/kg. The bcl-2 inhibitor GDC-0199 was given p.o. once daily (from day 18 to day 36) over 19 days at a dosage of 100 mg/kg. The MDM2 antagonist RG7388 (RO5503781) was given p.o. once daily over 5 days at a dosage of 100 mg/kg (active compound) from day 18 to day 22 and was administered over 12 days at a dosage of 80 mg/kg (active compound) from day 25 to day 36. There was no treatment on day 23 and 24. In the combination groups, RO5072759 B-HH6-B-KV1 GE, MDM2(4) and GDC-0199 were administered at the same dosages and on the same days. The corresponding vehicle was administered on the same days.
To elucidate the long term effects of the various treatments a time-to-event analysis was performed until day 125 after tumor cell inoculation.

[2] = system: DOHH2 DLBCL xenografts (CD20+, p53 wt); assay: In vivo antitumor efficacy against DOHH2 DLBCL xenografts (Example 1); details: s.c. DOHH-2 xenografts, female SCID beige mice; for TGI % (tumor growth inhibition compared to control): RG7388 30 mg/kg oral, obinutuzumab 10 mg/kg ip once weekly, GDC-0199 100 mg/kg oral, treatment days 13-29
Method: The in vivo antitumor efficacy of the CD20 specific antibody obinutuzumab in combination with bcl-2 inhibitor GDC-0199 and MDM2 inhibitor RG7388 was evaluated against DOHH2 DLBCL xenografts (CD20+, p53 wt). As used herein, obinutuzumab is used synonymously with RO5072759 and B-HH6-B-KV1 GE. As used herein, said bcl-2 inhibitor GDC-0199 is the following chemical compound: 4-(4-{[2-(4-chlorophenyl)-4,4-dimethylcyclohex-1-en-1-yl]methyl}piperazin-1-yl)-2-(1H-pyrrolo[2,3-b]pyridin-5-yloxy)-N-({4-[(tetrahydro-2H-pyran-4-ylmethyl)amino]-3-[(trifluoromethyl)sulfonyl]phenyl}sulfonyl)benzamide or a salt or a polymorphic form thereof. As used herein, said MDM2 inhibitor RG7388 is the following chemical compound 4-{[(2R,3S,4R,5S)-4-(4-Chloro-2-fluoro-phenyl)-3-(3-chloro-2-fluoro-phenyl)-4-cyano-5-(2,2-dimethyl-propyl)-pyrrolidine-2-carbonyl]-amino}-3-methoxy-benzoic acid or a salt or a polymorphic form thereof.
CD20 antibody obinutuzumab was provided as stock solution from Roche, Basel, Switzerland. Antibody buffer included histidine. Antibody solution was diluted appropriately in buffer from stock prior injections. MDM2(4) inhibitor was provided as SDP formulation from Roche, Basel, Switzerland and resuspended prior to use. Bcl-2 inhibitor GDC-0199 was provided by GNE, SSF, USA and formulated prior to use.
The original DOHH-2 human B cell NHL cell line (DLBCL) was established at the NCI and purchased from ATCC (Manassas, Va., USA). Expansion of tumor cells for the transplantation was done by the TAP CompacT CellBase Cell Culture Roboter according to the protocol. Tumor cell line was routinely cultured in RPMI 1640 medium, FCS 10% and L-Glutamin 2 mM at 37° C. in a water-saturated atmosphere at 5% CO2. Culture passage was performed with trypsin/EDTA 1× splitting twice/week and passage 2 used for transplantation.
Female SCID beige mice, age 6-7 weeks at arrival, maintained under specific-pathogen-free condition with daily cycles of 12 h light/12 h darkness according to committed guidelines. Experimental study protocol was reviewed and approved by local government. After arrival animals were maintained in animal facility for one week to get accustomed to new environment and for observation. Continuous health monitoring was carried out on regular basis. Diet food and autoclaved water were provided ad libitum.
Animals were controlled daily for clinical symptoms and detection of adverse effects. For monitoring throughout the experiment body weight of animals was documented.
Animal treatment started after randomisation when median tumor size was about 200 mm^3. CD20 antibody obinutuzumab was administered as single agent and in combination at 10 mg/kg ip once weekly on days 13, 21 and 27. The corresponding vehicle was administered on the same days. MDM2(4) inhibitor RG7388 oral treatment at 30 mg/kg was done as single agent and in combination on days 13-17, 20-24 and 27-29. Finally, bcl-2 inhibitor GDC-0199 was given orally at 100 mg/kg on days 13-29 as single agent and in combination.
DOHH-2 human Diffuse Large B-cell Lymphoma (DLBCL) cells (CD20+, p53 wt) were s.c. inoculated with Matrigel onto female SCID beige mice. Tumor bearing mice were randomized 13 days later to the indicated study groups and compound treatment initiated. Tumor bearing animals were treated with vehicle control, with the MDM2(4) inhibitor RO5503781 (RG7388) at 30 mg/kg, with the anti-CD20 antibody obinutuzumab at 10 mg/kg or with bcl-2 inhibitor GDC-0199 (100 mg/kg) as single agent. Furthermore one study group received the triple combination of MDM2 inhibitor RG7388, CD20 antibody obinutuzumab and bcl-2 inhibitor GDC-0199. […] A similar efficacy was noticed after treatment with the bcl-2 inhibitor GDC-0199 (60% TGI), whereas the best efficacy as single agent was achieved after treatment with the anti-CD20 antibody obinutuzumab reaching nearly tumor stasis (TGI 90%).

obinutuzumab: afucosylated glyco-engineered humanized B-Ly1 type II anti-CD20 IgG1 antibody, VH SEQ ID NO:7 (B-HH6), VL SEQ ID NO:20 (B-KV1)
Tumor growth inhibition (TGI) on day 32 [1]: 47%
Tumor-free animals on Day 125 [1]: 2
Median time to event (Days to reach TV of 1500 mm^3) [1]: 28 days
Number of animals with reduced tumor growth or non-responder [1]: 8
Number of animals with tumor regrowth [1]: 0
npTCR [2]: 0.17
TGI % (tumor growth inhibition compared to control) [2]: 90%

COc1cc(C(=O)O)ccc1NC(=O)[C@@H]1N[C@@H](CC(C)(C)C)[C@](C#N)(c2ccc(Cl)cc2F)[C@H]1c1cccc(Cl)c1F [RG7388, 4-{[(2R,3S,4R,5S)-4-(4-Chloro-2-fluoro-phenyl)-3-(3-chloro-2-fluoro-phenyl)-4-cyano-5-(2,2-dimethyl-propyl)-pyrrolidine-2-carbonyl]-amino}-3-methoxy-benzoic acid]
Tumor growth inhibition (TGI) on day 32 [1]: 67%
Tumor-free animals on Day 125 [1]: 0
Median time to event (Days to reach TV of 1500 mm^3) [1]: 30 days
Number of animals with reduced tumor growth or non-responder [1]: 9
Number of animals with tumor regrowth [1]: 0
npTCR [2]: 0.48
TGI % (tumor growth inhibition compared to control) [2]: 56%

CC1(C)CCC(CN2CCN(c3ccc(C(=O)NS(=O)(=O)c4ccc(NCC5CCOCC5)c([N+](=O)[O-])c4)c(Oc4cnc5[nH]ccc5c4)c3)CC2)=C(c2ccc(Cl)cc2)C1 [GDC-0199, 4-(4-{[2-(4-chlorophenyl)-4,4-dimethylcyclohex-1-en-1-yl]methyl}piperazin-1-yl)-N-({3-nitro-4-[(tetrahydro-2H-pyran-4-ylmethyl)amino]phenyl}sulfonyl)-2-(1H-pyrrolo[2,3-b]pyridin-5-yloxy)benzamide, reference compound]
Tumor growth inhibition (TGI) on day 32 [1]: 53%
Tumor-free animals on Day 125 [1]: 0
Median time to event (Days to reach TV of 1500 mm^3) [1]: 29 days
Number of animals with reduced tumor growth or non-responder [1]: 10
Number of animals with tumor regrowth [1]: 0
npTCR [2]: 0.43
TGI % (tumor growth inhibition compared to control) [2]: 60%
